Test results reported in PubChem BioAssay AID463136 (University of Pittsburgh Molecular Library Screening Center, 2010).
Inconclusive results are not listed. Active and inactive are the calls of the source. How the calls were made is not given here.

How the values were obtained:
[1] = tested on: HCS imaging, dynein-mediated cargo transport inhibition; assay: dynein cargo transport inhibitors, potency, dose response, imaging, high-content imaging (AID 463136);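 further: mouse mammary adenocarcinoma 3617.4 cells expressing GFP-tagged rat glucocorticoid receptor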; on inhibition: reference of the scale not given here
[2] = as above; conditions: HCS imaging, dynein-mediated cargo transport inhibition; inhibition at max concentration; at 50 µM; stronger effect = higher value

Structure (SMILES) | IC50 [1] | inhibition [2] [%]
CCCCCCN(C(=O)CCl)c1ccccc1 | 17.2 µM | 80.3
Cc1ccc(C2=NOC(=O)/C2=C\c2ccc(C)o2)cc1 | 39.9 µM | 79.8
C=CCSc1nnc(C)c(/C=C/Nc2ccc(Cl)cc2)n1 | 27.7 µM | 125
Cc1nc([N+](=O)[O-])c(Br)n1CC(=O)c1ccccc1 | 1.96 µM | 82.1
COc1ccc(C(=O)/C=C/C(=O)N(CC(=O)NCCC(C)C)Cc2cccs2)c(O)c1 | > 50 µM (inactive) | 45.7
COc1cc(NC(=O)Cn2ncc(Cl)c(Cl)c2=O)c(C)cc1[N+](=O)[O-] | 7.75 µM | 64.6
O=C(/C(=C/c1ccc(Cl)cc1)c1nc2ccccc2[nH]1)c1ccccc1 | > 50 µM (inactive) | 21.4
CC(C)N1C/C(=C/c2ccsc2)C(=O)/C(=C/c2ccsc2)C1 | 40.1 µM | 69.2
COC(=O)c1cc(=O)n(CCc2ccc(OC)cc2)c(=Nc2ccc(F)c(Cl)c2)s1 | > 50 µM (inactive) | 13.5
Cc1ccc(N2C(=O)NC(=O)/C(=C\C=C\c3ccco3)C2=O)cc1 | 27.7 µM | 108
Cc1cc(C)c(S(=O)(=O)ON2C(=O)c3ccccc3C2=O)cc1C | > 50 µM (inactive) | 10.5
Cc1ccccc1N1C(=O)CC(Sc2nnc(-c3ccccc3)o2)C1=O (configuration not stated) | > 50 µM (inactive) | 16.4
CN1C(=O)NC(=O)/C(=C/c2ccc([N+](=O)[O-])s2)C1=O | 12 µM | 84.7
O=C(CCl)N(C/C=C/c1ccccc1)c1ccc2c(c1)OCCO2 | 27.1 µM | 78.1
C=C1C(=O)[C@@]23[C@H](O)C[C@@H]4C(C)(C)CC[C@H](O)[C@@]4(C)[C@@H]2CC[C@@H]1[C@H]3O | 6.12 µM | 87.3
CCOC(=O)CC1C(=O)NCCN1c1nc2ccc(C)cn2c(=O)c1/C=C1\SC(=S)N(CC(C)C)C1=O (configuration not stated) | 44.9 µM | 71.8
O=C1C=C(NC2=CC3OC(c4ccccc4)OCC3OC2=O)CCC1 (configuration not stated) | > 50 µM (inactive) | 13
Cc1ccccc1-n1nnnc1Sc1nnnn1-c1ccccc1 | 17.6 µM | 87.8
CC(C)(C)C(=O)Cn1ncc(Br)c(Br)c1=O | 7.91 µM | 59.6
C=CCn1c(C)cc(C(=O)Cn2ncc(Cl)c(Cl)c2=O)c1C | 10.3 µM | 86.5
CCOC(=O)C1=C(Cc2ccc(OC)cc2)C(=O)c2ccccc2C1=O | > 50 µM (inactive) | 21.6

Structure (SMILES) | IC50 [1] | inhibition [2] [%]
CC(=O)OCCN(C)c1cc(SC(C)C)c2nonc2c1[N+](=O)[O-] | 35.5 µM | 68.1
O=C(/C=C/c1cccc([N+](=O)[O-])c1)n1cnc2ccccc21 | 17.3 µM | 85.7
Cc1ccc(N2C(=N)/C(=C3/Nc4ccccc4S3)C(c3ccccc3)C2=O)cc1 (configuration not stated) | 23.2 µM | 81.8
COc1ccc(-c2nnc(Sc3nc4ccccc4o3)c3ccccc23)cc1 | 27.2 µM | 88.8
O=C1NC(=O)N(c2ccccc2)C(=O)/C1=C\C=C\c1ccccc1 | 28.8 µM | 80.9
N#Cc1cccc(N=c2ssnc2Cl)c1 | > 50 µM (inactive) | 14.7
CC1(C)C[C@H]2C=C(C=O)[C@]3(C=O)C[C@]3(C)[C@H]2C1 | 12.9 µM | 78.6
Cc1ccc(C)c2nc3sc(C(=O)N4CCCc5ccccc54)c(N)c3cc12 | > 50 µM (inactive) | 34.8
COC(CN(C(=O)CCl)C(C(=O)NC1CCCCC1)c1ccc(Cl)cc1)OC (configuration not stated) | 22.6 µM | 82.6
CC(=O)Cn1ncc(Br)c(Br)c1=O | 5.4 µM | 78.5
CC(=O)Nc1sc(/C(C#N)=C\c2cccc(Cl)c2)nc1-c1ccc(C)cc1 | 8.22 µM | 109
CN(C)CCCN(C(=O)CCOc1ccccc1)c1nc2c(F)cccc2s1 | > 50 µM (inactive) | 30.5
CCOc1ccccc1N1C(=O)CC(Sc2n[nH]c(-c3ccccc3)n2)C1=O (configuration not stated) | > 50 µM (inactive) | 13.5
Cn1ncc(S(=O)(=O)Cc2ccccc2)c(Cl)c1=O | > 50 µM (inactive) | 10.6
CCN(CC)c1ccc(/C=C2/SC(=O)N(C(C)C)C2=O)o1 | > 50 µM (inactive) | 39.9
CC(=O)/C(=C/c1ccccc1)C(=O)Nc1ccccc1C | 15.9 µM | 70.1
Cc1nc2c(=O)n(C)c(=O)n(C)c2nc1Cl | 9.82 µM | 62.9
N#Cc1c(Cl)c(Cl)c2nnc(-c3ccc(Br)cc3)n2c1Cl | > 50 µM (inactive) | 40.1
COc1cccc(-n2nc(C#N)c(Cl)cc2=O)c1 | 11.2 µM | 48.5
CC(=O)n1cc(N(C(=O)CCl)c2ccc(C)cc2)c2ccccc21 | 16.8 µM | 68.7
Cc1cc(C)c2c(=O)n(CC(=O)NCCCN3CCN(c4ccccc4F)CC3)sc2n1 | 14 µM | 96.3

Structure (SMILES) | IC50 [1] | inhibition [2] [%]
O=C1NC(=O)N(c2ccccc2)C(=O)/C1=C\c1ccc([N+](=O)[O-])s1 | 14.4 µM | 85.5
O=C(NC1CCCCC1)C(c1cccnc1)N(C(=O)CCl)c1cccc(Cl)c1 (configuration not stated) | 7.48 µM | 52.2
CCOC(=O)C(=Cc1ccc(F)cc1)C(=O)OCC | 27.8 µM | 73.4
CCN1C/C(=C/c2ccc(N3CCOCC3)cc2)C(=O)/C(=C/c2ccc(N3CCOCC3)cc2)C1 | 25 µM | 108
O=[N+]([O-])c1ccc(N/N=C/c2ccc[nH]2)cc1 | 18 µM | 148
COc1ccc(NC(=O)/C(Cl)=C(/Cl)S(=O)Cc2ccccc2)cn1 (configuration not stated) | 19.5 µM | 64.4
C#CC(=O)N(c1ccc(OC)c(OC)c1)C(C(=O)NC1CCCC1)c1cccs1 (configuration not stated) | > 50 µM (inactive) | 40.2
Cc1cccc(N(Cc2ccccc2)C(=O)CCl)c1 | 11.9 µM | 63.4
Cc1ccc2nc(/C(C#N)=C\c3ccc(N4CCOCC4)o3)[nH]c2c1 | 13.1 µM | 80.2
Cc1cc(C)c(C)c(S(=O)(=O)ON2C(=O)c3ccccc3C2=O)c1C | > 50 µM (inactive) | -3.7
CCOC(=O)c1c2ccc(OCC(=O)N/N=C/c3ccc(Cl)cc3)cc2n2ccccc12 | > 50 µM (inactive) | 27.4
O=C1/C(=C/c2ccccc2[N+](=O)[O-])COc2ccccc21 | > 50 µM (inactive) | 39.6
O=C(c1ccccc1)c1ccccc1N1C(=O)C=CC1=O | > 50 µM (inactive) | 7.43
O=C(CCl)N(Cc1cccc([N+](=O)[O-])c1)c1cccc(Cl)c1 | 12.2 µM | 75
COc1cccc(N2C(=O)NC(=O)/C(=C/c3ccc([N+](=O)[O-])s3)C2=O)c1 | 10.7 µM | 87.8
COc1cc(/C=C(/C(=O)c2cccs2)c2nc3ccccc3[nH]2)cc(OC)c1O | 13.8 µM | 61.2
O=Cc1s/c(=N\S(=O)(=O)c2ccccc2)n(CCCCl)c1Cl | 33.2 µM | 68.2
O=C1C=CC(O)(c2cc(=O)c3c(O)cc(O)cc3o2)C=C1 | 5.9 µM | 86.7
O=C(CCl)N(c1ccc(Cl)cc1)c1c[nH]c2ccccc12 | > 50 µM (inactive) | 10.3
